Laboratory results as given in PubChem BioAssay (NCI).
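All cell lines were grown in 96-well plates and treated with compound for 48 hours. At the GI50, growth is halved. TGI is the concentration that stops growth completely.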

Assays:
Experiment in all cases: DTP human tumour cell line panel, 48 h
786-0 renal = system: 786-0 renal
HCT-15 colon = system: HCT-15 colon
LOX IMVI melanoma = system: LOX IMVI melanoma
MCF7 breast = system: MCF7 breast
OVCAR-5 ovarian = system: OVCAR-5 ovarian
SN12C renal = system: SN12C renal
SNB-19 CNS = system: SNB-19 CNS
SR leukemia = system: SR leukemia
UACC-62 melanoma = system: UACC-62 melanoma
UO-31 renal = system: UO-31 renal

| Compound | GI50 (786-0 renal) | TGI (786-0 renal) | GI50 (HCT-15 colon) | TGI (HCT-15 colon) | GI50 (LOX IMVI melanoma) | TGI (LOX IMVI melanoma) | GI50 (MCF7 breast) | TGI (MCF7 breast) | GI50 (OVCAR-5 ovarian) | TGI (OVCAR-5 ovarian) | GI50 (SN12C renal) | TGI (SN12C renal) | GI50 (SNB-19 CNS) | TGI (SNB-19 CNS) | GI50 (SR leukemia) | TGI (SR leukemia) | GI50 (UACC-62 melanoma) | TGI (UACC-62 melanoma) | GI50 (UO-31 renal) | TGI (UO-31 renal) |
| --- | --- | --- | --- | --- | --- | --- | --- | --- | --- | --- | --- | --- | --- | --- | --- | --- | --- | --- | --- | --- |
| COc1ccc(C/C(C)=C(\c2ccc(OCCN3CCOCC3)cc2)c2ccc(OC(=O)Cc3ccccc3)cc2)cc1 | 0.51 µM | 0.994 µM | 0.566 µM | 1.5 µM | 0.56 µM | 1.03 µM | 0.574 µM | 1.54 µM | 0.951 µM | 10.7 µM | 0.612 µM | 1.44 µM | 1.3 µM | 8.34 µM | 0.648 µM | 1.73 µM | 0.527 µM | 1.06 µM | 0.422 µM | 0.952 µM |
| NC(=O)c1cc([N+](=O)[O-])c(Cl)c([N+](=O)[O-])c1 | 1.96 µM | 3.56 µM | 1.98 µM | 3.92 µM | 1.86 µM | 3.7 µM | 1.97 µM | 4.06 µM | 5.53 µM | 17.6 µM | 1.8 µM | 3.57 µM | 15.3 µM | 29.5 µM | 1.89 µM | > 100 µM | 2.43 µM | 7.13 µM | 1.77 µM | 3.24 µM |
| NC(=NC1CCCCCCC1)c1ccc(N2CCN(c3ccc(C(N)=NC4CCCCCCC4)cc3)CC2)cc1 | 18.9 µM | > 100 µM | 31.8 µM | > 100 µM | > 100 µM | > 100 µM | 5.77 µM | > 100 µM | 14.9 µM | 39 µM | 7.62 µM | 69.3 µM | 13.5 µM | 27.6 µM | 26.6 µM | > 100 µM | 12.6 µM | 28.3 µM | 48.3 µM | > 100 µM |
| N=c1c2c(-c3ccccc3)c(-c3ccccc3)n(Cc3ccccc3)c2ncn1CCCO | 1.92 µM | 16.2 µM | 0.696 µM | 15.5 µM | 0.5 µM | 2.77 µM | 0.472 µM | 2.07 µM | 7.27 µM | 23.4 µM | 1.99 µM | 19.6 µM | 2.21 µM | 21.3 µM | 0.268 µM | 6.4 µM | 1.91 µM | 14.4 µM | 2.24 µM | 16.5 µM |
| COc1ccc(-c2nnc(SCC(=O)Nc3ccc(/C(C)=N\O)cc3)n2-c2ccccc2)cc1OC | 14.9 µM | > 100 µM | > 100 µM | > 100 µM | > 100 µM | > 100 µM | > 100 µM | > 100 µM | > 100 µM | > 100 µM | 26.2 µM | > 100 µM | 6.43 µM | > 100 µM | > 100 µM | > 100 µM | > 100 µM | > 100 µM | > 100 µM | > 100 µM |
| C/C(=C\c1ccn(-c2ccc(N)c(F)c2)n1)[C@@H]1C[C@@H]2O[C@]2(C)CCC[C@H](C)[C@H](O)[C@@H](C)C(=O)C(C)(C)[C@@H](O)CC(=O)O1 | 0.0253 µM | > 50 µM | 0.00913 µM | > 50 µM | 0.0121 µM | > 50 µM | 0.00601 µM | > 50 µM | 0.0472 µM | > 50 µM | 0.0389 µM | > 50 µM | 0.048 µM | > 50 µM | 0.00915 µM | > 50 µM | 0.0517 µM | > 50 µM | 0.0982 µM | > 50 µM |
| C=C(C)[C@@H]1CC[C@]2(C(=O)NCCNCCNCCN)CC[C@]3(C)[C@H](CC[C@@H]4[C@@]5(C)CC[C@H](O)C(C)(C)[C@@H]5CC[C@]43C)[C@@H]12 | 12.4 µM | 25.2 µM | 11.5 µM | 26.1 µM | 14.9 µM | 28.6 µM | 13.2 µM | 29.3 µM | 18.6 µM | 35 µM | 13.5 µM | 33.2 µM | 12.9 µM | 28.2 µM | 6.76 µM | > 100 µM | 9.29 µM | 23 µM | 11.7 µM | 24.7 µM |
| O=C1CC(c2ccc3c(c2)OCO3)Nc2cc3c(cc21)OCO3 (stereo not given) | 0.778 µM | 36.3 µM | 0.432 µM | > 100 µM | 0.467 µM | 15.3 µM | 0.364 µM | > 100 µM | 2.3 µM | > 100 µM | 0.788 µM | > 100 µM | 0.687 µM | > 100 µM | 0.266 µM | 12.4 µM | 0.673 µM | > 100 µM | 0.767 µM | > 100 µM |
| CS(=O)(=O)c1ccc(-c2cnc(N)c(C(=O)Nc3ccccc3)n2)cc1 | 3.71 µM | > 100 µM | 5.92 µM | > 100 µM | 4.2 µM | > 100 µM | 10.8 µM | > 100 µM | > 100 µM | > 100 µM | 6.81 µM | > 100 µM | > 81.5 µM | > 100 µM | 2.39 µM | > 100 µM | > 51.9 µM | > 100 µM | 5.45 µM | > 42.8 µM |
| O=Cc1cn(Cc2cccc(Cl)c2)c2ccccc12 | 8.95 µM | 24.4 µM | 11.6 µM | 25.2 µM | 7.4 µM | 21 µM | 1.85 µM | 19.4 µM | 0.0263 µM | 0.504 µM | 10.7 µM | 23.5 µM | 12.9 µM | 27.3 µM | 23.9 µM | 55.7 µM | 0.533 µM | 6.45 µM | 5.49 µM | 21.1 µM |
| CCCCCCC#Cc1ccccc1C#CCO | 31.3 µM | 96.1 µM | 35.9 µM | > 100 µM | 20.3 µM | 49.3 µM | 32.8 µM | > 100 µM | 38.7 µM | > 100 µM | 19.4 µM | 39.7 µM | 16.3 µM | 31.7 µM | 39.9 µM | > 100 µM | 19.1 µM | 43.6 µM | 18.8 µM | 38.6 µM |
| Cn1c(=O)c(Oc2ccc(F)cc2F)cc2cnc(NC(CO)CO)nc21 | > 25 µM | > 25 µM | > 25 µM | > 25 µM | > 25 µM | > 25 µM | > 25 µM | > 25 µM | > 25 µM | > 25 µM | > 25 µM | > 25 µM | > 25 µM | > 25 µM | > 25 µM | > 25 µM | > 25 µM | > 25 µM | > 25 µM | > 25 µM |
| CC1=CCC(OC(=O)C(C)(C)CCC(O)(C(=O)OC2(C(C)C)CCC3(C)OC3C2)C(C)C)(C(C)C)CC1 (stereo not given) | 0.616 µM | 1.54 µM | 0.148 µM | 0.688 µM | 0.0764 µM | 0.15 µM | 0.121 µM | 0.448 µM | 0.695 µM | 1.39 µM | 0.124 µM | 0.532 µM | 1.14 µM | 5.43 µM | 0.266 µM | 1.51 µM | 0.298 µM | 1.11 µM | 0.0634 µM | 0.164 µM |
| C=C(C)C(=O)OC1CC2=CC(CC3(C)OC3C3OC(=O)C(=C)C13)OC2=O (stereo not given) |  | 20.5 µM |  | 20.2 µM |  | 8.99 µM |  | 14.7 µM |  | 34.6 µM |  | 26.8 µM |  | 33.9 µM |  | 15.7 µM |  | 22 µM |  | 26.2 µM |
